Where two headings read alike, the source gives them in different places.
What was measured:
EGFR T790M/L858R = EGFR T790M/L858R (Homo sapiens (Human), UniProt P00533, L858R/T790M); conditions: for covalent modification of EGFR T790M/L858R: MS analysis
pEGFR in H1975 cells = pEGFR in H1975 cells (Homo sapiens (Human), UniProt P00533, L858R/T790M); conditions: 500 nM for 1 hr, 0-24 hr
A431 cells (WT EGFR) = assay: Cell proliferation (CellTiter Glo, 72 hr), A431; format: cell-based; conditions: Homo sapiens, A-431
Method: (§1) A431 human epidermoid carcinoma, H1975 human NSCLC and HCC827 human NSCLC adenocarcinoma cells were obtained from the American Type Culture Center (Manassas, Va.). A431 cells were grown in DMEM (Invitrogen, Carlsbad, Calif.) supplemented with 10% FBS (HyClone, South Logan, Utah) and 1% Penicillin-Streptomycin (P/S, Lonza, Walkersville, Md.).
(§2) Growth inhibition (GI50) values were determined by Graph Pad Prism.

[1] = tested on: H1975 cells (EGFR L858R/T790M); assay: Cell proliferation (CellTiter Glo, 72 hr), H1975; format: cell-based, human; conditions: for GI50: Homo sapiens, NCI-H1975; for Ratio WT/mutant: proliferation GI50, WT (A431) vs H1975
Method: as §1, §2

[2] = molecular target: EGFR delE746-A750 (HCC827 cells) (Homo sapiens (Human), UniProt P00533, DEL746-750); assay: EGFR signaling immunoblot (1 hr) in HCC827 cells; format: cell-based; conditions: signaling EC50, WT (A431) vs HCC827
Method: as §1
(§3) All primary antibodies were obtained from Cell Signaling (Danvers, Mass.) and used at 1:1000. Secondary antibodies were used at 1:10,000. Goat anti-mouse IgG IRDye 800CW antibody was obtained from LiCor Biosciences (Lincoln, Nebr.) and goat anti-rabbit IgG Alexa Fluor 680 was obtained from Invitrogen.
(§4) Cells were grown in 12-well plates (Corning, Coring, N.Y.) to 90% confluence and then incubated in low-serum (0.1% FBS) media for 16-18 hr. […] A431 cells were then stimulated with 50 ng/ml EGF (Peprotech, Rocky Hill, N.J.) for 15 min. After treatment, cell monolayers were washed with cold PBS (Invitrogen) and immediately lysed by scrapping into 60 uL cold Cell Extraction Buffer (Invitrogen) supplemented with Complete Protease inhibitors (Roche, Indianapolis, Ind.) and PhosphoSTOP (Roche) phosphatase inhibitors.
(§5) Phospho-protein signals were quantitated using Odyssey Infrared Imaging (Li-Cor Biosciences).
(§6) Blots were normalized as indicated above. […]

[3] = molecular target: EGFR L858R/T790M (H1975 cells) (Homo sapiens (Human), UniProt P00533, L858R/T790M); assay: EGFR signaling immunoblot (1 hr) in H1975 cells; format: cell-based; conditions: for Ratio WT/mutant: signaling EC50, WT (A431) vs H1975
Method: as §1, §3, §4, §5
Blots were normalized as indicated above. […] Normalized data was fitted using a sigmoidal curve analysis program (Graph Pad Prism version 5) with variable Hill slope to determine the EC50 values.

[4] = tested on: HCC827 cells (EGFR delE746-A750); assay: Cell proliferation (CellTiter Glo, 72 hr), HCC827; format: cell-based, human; conditions: for GI50: Homo sapiens; for Ratio WT/mutant: proliferation GI50, WT (A431) vs HCC827
Method: as §1, §2

WT EGFR (A431 cells) = WT EGFR (A431 cells) (Homo sapiens (Human), UniProt P00533); assay: EGFR signaling immunoblot (1 hr) in A431 cells; format: cell-based
Method: as §1, §3, §4, §5, §6

[5] = A431 cells, 72 hr, read-out: WT EGFR GI50
[6] = H1975 cells, 72 hr, read-out: H1975 GI50
[7] = HCC827 cells, 72 hr, read-out: HCC827 GI50

SMILES | time to complete modification of EGFR T790M/L858R (EGFR T790M/L858R; 10-fold excess of compound) [min] | mass shift as percent of compound mass (EGFR T790M/L858R; 10-fold excess of compound, MALDI) [%] | covalent modification of EGFR T790M/L858R (EGFR T790M/L858R) | duration of action after washout (pEGFR inhibition) (pEGFR in H1975 cells) | GI50 (A431 cells (WT EGFR); [5]) [µM] | GI50 (A431 cells (WT EGFR); Table 2, A431 cells (WT EGFR), read-out: Comparative GI50, A431) [µM] | GI50 [1, 6] [µM] | GI50 ([1]; Table 2, H1975 cells (L858R/T790M), read-out: Comparative GI50, H1975) [µM] | Ratio WT/mutant [1] | Ratio WT/mutant [2] | Ratio WT/mutant [3] | GI50 [4, 7] [µM] | GI50 ([4]; Table 2, HCC827 cells (delE746-A750), read-out: Comparative GI50, HCC827) [µM] | Ratio WT/mutant [4] | WT-EGFR sparing in A431 cells (pEGFR, pS6) (WT EGFR (A431 cells)) | inhibition of pEGFR and downstream S6 Ribosomal protein in H1975 cells ([3]; H1975 vs A431, FIG. 1 and 2)
C=CC(=O)Nc1cccc(Nc2nc(Nc3ccccc3OC)ncc2C(F)(F)F)c1 [Compound I-1, N-(3-(2-(2-methoxyphenylamino)-5-(trifluoromethyl)pyrimidin-4-ylamino)phenyl)acrylamide] | ≤ 30 | 113 | completely modifies | prolonged duration of action | > 1 | > 1 | 0.1 to 0.5 | 0.1 to 0.5 | >10 | >50 | >50 | 0.01 to 0.1 | 0.01 to 0.1 | >20 | – | –
C=CC(=O)Nc1cccc(Oc2nc(Nc3ccc(OC)c(OC)c3OC)ncc2Cl)c1 [Compound I-7, N-(3-(5-chloro-2-(2,3,4-trimethoxyphenylamino)pyrimidin-4-yloxy)phenyl)acrylamide] | – | – | covalently modify | – | > 1 | – | 0.1 to 0.5 | – | >10 | – | >50 | 0.1 to 0.5 | – | >15 | completely WT-EGFR sparing | mutant selective

From patent publication US10081606B2, “Heteroaryl compounds and uses thereof” (Celgene CAR LLC, priority 2010, dated 2018)
